# Data as given in PubChem BioAssay (NCI).
#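 Five compound concentrations were applied to cells in 96-well plates for 48 hours; endpoints were derived by simple linear interpolation of the resulting dose-response curve. At the GI50, growth is halved. Definition used: TGI = concentration required for complete inhibition of growth.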
# Legend:
# Assay in all cases: NCI tumour cell line growth inhibition, 48 h
# 786-0 renal = tested on: 786-0 renal
# A498 renal = tested on: A498 renal
# A549 NSCLC = tested on: A549 NSCLC
# ACHN renal = tested on: ACHN renal
# BT-549 breast = tested on: BT-549 breast
# CCRF-CEM leukemia = tested on: CCRF-CEM leukemia
# COLO 205 colon = tested on: COLO 205 colon
# DU-145 prostate = tested on: DU-145 prostate
# EKVX NSCLC = tested on: EKVX NSCLC
# HCC-2998 colon = tested on: HCC-2998 colon
# HCT-116 colon = tested on: HCT-116 colon
# HCT-15 colon = tested on: HCT-15 colon
# HL-60(TB) leukemia = tested on: HL-60(TB) leukemia
# HOP-62 NSCLC = tested on: HOP-62 NSCLC
# HOP-92 NSCLC = tested on: HOP-92 NSCLC
# HS 578T breast = tested on: HS 578T breast
# HT29 colon = tested on: HT29 colon
# IGROV1 ovarian = tested on: IGROV1 ovarian
# K-562 leukemia = tested on: K-562 leukemia
# KM12 colon = tested on: KM12 colon
# LOX IMVI melanoma = tested on: LOX IMVI melanoma
# MALME-3M melanoma = tested on: MALME-3M melanoma
# MCF7 breast = tested on: MCF7 breast
# MDA-MB-435 = tested on: MDA-MB-435
# MOLT-4 leukemia = tested on: MOLT-4 leukemia
# NCI-H226 lung = tested on: NCI-H226 lung
# NCI-H23 lung = tested on: NCI-H23 lung
# NCI-H460 lung = tested on: NCI-H460 lung
# NCI-H522 lung = tested on: NCI-H522 lung
# NCI/ADR-RES ovarian = tested on: NCI/ADR-RES ovarian
# OVCAR-3 ovarian = tested on: OVCAR-3 ovarian
# OVCAR-4 ovarian = tested on: OVCAR-4 ovarian
# OVCAR-8 ovarian = tested on: OVCAR-8 ovarian
# PC-3 prostate = tested on: PC-3 prostate
# RPMI-8226 leukemia = tested on: RPMI-8226 leukemia
# RXF 393 renal = tested on: RXF 393 renal
# SF-268 CNS = tested on: SF-268 CNS
# SF-295 CNS = tested on: SF-295 CNS
# SF-539 CNS = tested on: SF-539 CNS
# SK-MEL-28 melanoma = tested on: SK-MEL-28 melanoma
# SK-MEL-5 melanoma = tested on: SK-MEL-5 melanoma
# SNB-19 CNS = tested on: SNB-19 CNS
# SNB-75 CNS = tested on: SNB-75 CNS
# SR leukemia = tested on: SR leukemia
# SW-620 colon = tested on: SW-620 colon
# T-47D breast = tested on: T-47D breast
# TK-10 renal = tested on: TK-10 renal
# U251 CNS = tested on: U251 CNS
# UACC-257 melanoma = tested on: UACC-257 melanoma
# UACC-62 melanoma = tested on: UACC-62 melanoma
# UO-31 renal = tested on: UO-31 renal
# CAKI-1 renal = tested on: CAKI-1 renal
# M14 melanoma = tested on: M14 melanoma
# MDA-MB-231 breast = tested on: MDA-MB-231 breast
# OVCAR-5 ovarian = tested on: OVCAR-5 ovarian
# SK-MEL-2 melanoma = tested on: SK-MEL-2 melanoma
# SK-OV-3 ovarian = tested on: SK-OV-3 ovarian
# SN12C renal = tested on: SN12C renal
structure (smiles),measurement,setting,value
Cc1cc2cc3c(Cl)c(CCCl)c(C)nc3cc2c(Cl)c1CCCl,TGI,786-0 renal,78.6 µM
same,TGI,A498 renal,48.4 µM
same,TGI,A549 NSCLC,57.2 µM
same,TGI,ACHN renal,75.5 µM
same,TGI,BT-549 breast,47.7 µM
same,TGI,CCRF-CEM leukemia,48.9 µM
same,TGI,COLO 205 colon,36.1 µM
same,TGI,DU-145 prostate,80.3 µM
same,TGI,EKVX NSCLC,42.3 µM
same,TGI,HCC-2998 colon,39.7 µM
same,TGI,HCT-116 colon,31.8 µM
same,TGI,HCT-15 colon,> 100 µM
same,TGI,HL-60(TB) leukemia,27.3 µM
same,TGI,HOP-62 NSCLC,27.8 µM
same,TGI,HOP-92 NSCLC,35.4 µM
same,TGI,HS 578T breast,30.6 µM
same,TGI,HT29 colon,> 100 µM
same,TGI,IGROV1 ovarian,> 100 µM
same,TGI,K-562 leukemia,43.3 µM
same,TGI,KM12 colon,46.4 µM
same,TGI,LOX IMVI melanoma,29.5 µM
same,TGI,MALME-3M melanoma,45.7 µM
same,TGI,MCF7 breast,56.7 µM
same,TGI,MDA-MB-435,30.8 µM
same,TGI,MOLT-4 leukemia,44.7 µM
same,TGI,NCI-H226 lung,20.5 µM
same,TGI,NCI-H23 lung,63.6 µM
same,TGI,NCI-H460 lung,34.2 µM
same,TGI,NCI-H522 lung,37.7 µM
same,TGI,NCI/ADR-RES ovarian,61.8 µM
same,TGI,OVCAR-3 ovarian,34.4 µM
same,TGI,OVCAR-4 ovarian,66.3 µM
same,TGI,OVCAR-8 ovarian,94.5 µM
same,TGI,PC-3 prostate,39.6 µM
same,TGI,RPMI-8226 leukemia,36.5 µM
same,TGI,RXF 393 renal,17.5 µM
same,TGI,SF-268 CNS,30.9 µM
same,TGI,SF-295 CNS,35.2 µM
same,TGI,SF-539 CNS,30 µM
same,TGI,SK-MEL-28 melanoma,35.1 µM
same,TGI,SK-MEL-5 melanoma,26.6 µM
same,TGI,SNB-19 CNS,85.9 µM
same,TGI,SNB-75 CNS,> 100 µM
same,TGI,SR leukemia,32.9 µM
same,TGI,SW-620 colon,76.8 µM
same,TGI,T-47D breast,69.8 µM
same,TGI,TK-10 renal,> 100 µM
same,TGI,U251 CNS,60 µM
same,TGI,UACC-257 melanoma,34.8 µM
same,TGI,UACC-62 melanoma,34.4 µM
same,TGI,UO-31 renal,50.9 µM
Clc1ccc(N2CCN(CCCN3CCN(c4cccc(Cl)c4)CC3)CC2)cc1,GI50,786-0 renal,4.63 µM
same,TGI,786-0 renal,18.5 µM
same,GI50,A498 renal,4.61 µM
same,TGI,A498 renal,18.8 µM
same,GI50,A549 NSCLC,8.57 µM
same,TGI,A549 NSCLC,28.4 µM
same,GI50,ACHN renal,7.77 µM
same,TGI,ACHN renal,21.5 µM
same,GI50,BT-549 breast,3.72 µM
same,TGI,BT-549 breast,15.6 µM
same,GI50,CAKI-1 renal,7.43 µM
same,TGI,CAKI-1 renal,25.6 µM
same,GI50,CCRF-CEM leukemia,3.8 µM
same,TGI,CCRF-CEM leukemia,25.3 µM
same,GI50,COLO 205 colon,1.62 µM
same,TGI,COLO 205 colon,3.35 µM
same,GI50,DU-145 prostate,8.14 µM
same,TGI,DU-145 prostate,21.4 µM
same,GI50,EKVX NSCLC,4.5 µM
same,TGI,EKVX NSCLC,35.9 µM
same,GI50,HCC-2998 colon,2.65 µM
same,TGI,HCC-2998 colon,11.7 µM
same,GI50,HCT-116 colon,2.45 µM
same,TGI,HCT-116 colon,12.2 µM
same,GI50,HCT-15 colon,4.9 µM
same,TGI,HCT-15 colon,22.4 µM
same,GI50,HL-60(TB) leukemia,2.33 µM
same,TGI,HL-60(TB) leukemia,6.7 µM
same,GI50,HOP-62 NSCLC,3.97 µM
same,TGI,HOP-62 NSCLC,18.1 µM
same,GI50,HOP-92 NSCLC,0.813 µM
same,TGI,HOP-92 NSCLC,11.4 µM
same,GI50,HS 578T breast,4.82 µM
same,TGI,HS 578T breast,22 µM
same,GI50,HT29 colon,3.03 µM
same,TGI,HT29 colon,13.5 µM
same,GI50,IGROV1 ovarian,8.89 µM
same,TGI,IGROV1 ovarian,24.6 µM
same,GI50,K-562 leukemia,1.45 µM
same,TGI,K-562 leukemia,6.08 µM
same,GI50,KM12 colon,3.45 µM
same,TGI,KM12 colon,15.6 µM
same,GI50,LOX IMVI melanoma,2.8 µM
same,TGI,LOX IMVI melanoma,13.8 µM
same,GI50,M14 melanoma,1.57 µM
same,TGI,M14 melanoma,3.21 µM
same,GI50,MALME-3M melanoma,2.06 µM
same,TGI,MALME-3M melanoma,6.15 µM
same,GI50,MCF7 breast,2.92 µM
same,TGI,MCF7 breast,12.2 µM
same,GI50,MDA-MB-231 breast,4.22 µM
same,TGI,MDA-MB-231 breast,18.6 µM
same,GI50,MDA-MB-435,3.36 µM
same,TGI,MDA-MB-435,16.7 µM
same,GI50,MOLT-4 leukemia,2.01 µM
same,TGI,MOLT-4 leukemia,17.4 µM
same,GI50,NCI-H226 lung,6.51 µM
same,TGI,NCI-H226 lung,23.3 µM
same,GI50,NCI-H23 lung,3.33 µM
same,TGI,NCI-H23 lung,17.8 µM
same,GI50,NCI-H460 lung,3.78 µM
same,TGI,NCI-H460 lung,15.8 µM
same,GI50,NCI-H522 lung,14.7 µM
same,TGI,NCI-H522 lung,34 µM
same,GI50,NCI/ADR-RES ovarian,4.6 µM
same,TGI,NCI/ADR-RES ovarian,20.7 µM
same,GI50,OVCAR-3 ovarian,3.44 µM
same,TGI,OVCAR-3 ovarian,15.3 µM
same,GI50,OVCAR-4 ovarian,5.77 µM
same,TGI,OVCAR-4 ovarian,20.7 µM
same,GI50,OVCAR-5 ovarian,9.12 µM
same,TGI,OVCAR-5 ovarian,29.6 µM
same,GI50,OVCAR-8 ovarian,10.4 µM
same,TGI,OVCAR-8 ovarian,28.1 µM
same,GI50,PC-3 prostate,3.34 µM
same,TGI,PC-3 prostate,16.4 µM
same,GI50,RPMI-8226 leukemia,1.79 µM
same,TGI,RPMI-8226 leukemia,7.84 µM
same,GI50,RXF 393 renal,6.7 µM
same,TGI,RXF 393 renal,22.4 µM
same,GI50,SF-268 CNS,7.77 µM
same,TGI,SF-268 CNS,21.4 µM
same,GI50,SF-295 CNS,3.74 µM
same,TGI,SF-295 CNS,19.1 µM
same,GI50,SF-539 CNS,3.21 µM
same,TGI,SF-539 CNS,12.4 µM
same,GI50,SK-MEL-2 melanoma,14.3 µM
same,TGI,SK-MEL-2 melanoma,31.5 µM
same,GI50,SK-MEL-28 melanoma,2.53 µM
same,TGI,SK-MEL-28 melanoma,8.27 µM
same,GI50,SK-MEL-5 melanoma,1.6 µM
same,TGI,SK-MEL-5 melanoma,3.46 µM
same,GI50,SK-OV-3 ovarian,10.7 µM
same,TGI,SK-OV-3 ovarian,23.2 µM
same,GI50,SN12C renal,7.51 µM
same,TGI,SN12C renal,21.6 µM
same,GI50,SNB-19 CNS,11.3 µM
same,TGI,SNB-19 CNS,24.7 µM
same,GI50,SNB-75 CNS,2.52 µM
same,TGI,SNB-75 CNS,14.8 µM
same,GI50,SW-620 colon,3.08 µM
same,TGI,SW-620 colon,14 µM
same,GI50,T-47D breast,1.63 µM
same,TGI,T-47D breast,14.3 µM
same,GI50,TK-10 renal,5.32 µM
same,TGI,TK-10 renal,21.3 µM
same,GI50,U251 CNS,5.45 µM
same,TGI,U251 CNS,20.1 µM
same,GI50,UACC-257 melanoma,4.33 µM
same,TGI,UACC-257 melanoma,16.3 µM
same,GI50,UACC-62 melanoma,2.86 µM
same,TGI,UACC-62 melanoma,11.3 µM
same,GI50,UO-31 renal,3.56 µM
same,TGI,UO-31 renal,16.2 µM
